Values quoted from earlier work as cited in EP3372227A1, “TABLET FORMULATION OF ADEFOVIR DIPIVOXIL” (MH10 Spolka z ograniczona odpowiedzialnoscia, priority 2017, dated 2018).

Conditions: rat, in vivo

With Nc1ncnc2c1ncn2CCOCP(=O)(O)O [adefovir] as the compound, how does the relative oral bioavailability read?
The relative oral bioavailability was 7.8.
